Assay results taken from the supplement of paper PMC10307832.

What was measured:
Assay in all cases: relative viability (nuclei count vs DMSO), 5 days (fraction); higher = more cells survive
MK-8033 + AZD7762 = compound: Cn1cc(-c2cnc3ccc4ccc(CS(=O)(=O)NCc5ccccn5)cc4c(=O)c3c2)cn1 [MK-8033] + NC(=O)Nc1cc(-c2cccc(F)c2)sc1C(=O)N[C@H]1CCCNC1 [AZD7762] (partner 0.2 µM)
Summary of the method: (§1)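 Relative viability was taken as the ratio of nuclei in treated wells to nuclei in vehicle wells. Lung cancer cell lines in 1536-well plates received compounds by pin tool one day after seeding, either one drug alone or a fixed anchor-drug dose plus five library-drug doses (not always all listed) in √10 steps. Nuclei were counted on 4× images after 5 days of treatment, and values are medians of duplicate plates.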

RU-SKI 43 + Trametinib = compound: CC[C@@H](C)CNCC(=O)N1CCC2=C([C@@H]1COC3=CC=CC(=C3)C)C=CS2 [RU-SKI 43] + CC(=O)Nc1cccc(-n2c(=O)n(C3CC3)c(=O)c3c(Nc4ccc(I)cc4F)n(C)c(=O)c(C)c32)c1 [Trametinib] (partner 0.02 µM)
Summary of the method: as §1

Irinotecan + Trametinib = compound: CCc1c2c(nc3ccc(OC(=O)N4CCC(N5CCCCC5)CC4)cc13)-c1cc3c(c(=O)n1C2)COC(=O)[C@]3(O)CC [Irinotecan] + CC(=O)Nc1cccc(-n2c(=O)n(C3CC3)c(=O)c3c(Nc4ccc(I)cc4F)n(C)c(=O)c(C)c32)c1 [Trametinib] (partner 0.02 µM)
Summary of the method: as §1

MK-8033 + Olaparib = compound: Cn1cc(-c2cnc3ccc4ccc(CS(=O)(=O)NCc5ccccn5)cc4c(=O)c3c2)cn1 [MK-8033] + O=C(c1cc(Cc2n[nH]c(=O)c3ccccc23)ccc1F)N1CCN(C(=O)C2CC2)CC1 [Olaparib] (partner 8 µM)
Summary of the method: as §1

Cell Line | relative viability (MK-8033 + AZD7762; first compound 0.02 µM) | relative viability (MK-8033 + AZD7762; first compound 0.06325 µM) | relative viability (MK-8033 + AZD7762; first compound 0.2 µM) | relative viability (MK-8033 + AZD7762; first compound 0.6325 µM) | relative viability (MK-8033 + AZD7762; first compound 2 µM) | relative viability (RU-SKI 43 + Trametinib; first compound 0.1 µM) | relative viability (RU-SKI 43 + Trametinib; first compound 0.3162 µM) | relative viability (RU-SKI 43 + Trametinib; first compound 3.162 µM) | relative viability (RU-SKI 43 + Trametinib; first compound 10 µM) | relative viability (Irinotecan + Trametinib; first compound 0.6325 µM) | relative viability (Irinotecan + Trametinib; first compound 2 µM) | relative viability (Irinotecan + Trametinib; first compound 6.325 µM) | relative viability (Irinotecan + Trametinib; first compound 20 µM) | relative viability (MK-8033 + Olaparib; first compound 0.02 µM) | relative viability (MK-8033 + Olaparib; first compound 0.06325 µM) | relative viability (MK-8033 + Olaparib; first compound 0.2 µM) | relative viability (MK-8033 + Olaparib; first compound 0.6325 µM) | relative viability (MK-8033 + Olaparib; first compound 2 µM) | relative viability (RU-SKI 43 + Trametinib; first compound 1 µM)
NCI-H650 | 0.947 | 0.997 | 0.982 | 0.945 | 0.985 | 0.905 | 0.931 | 1.05 | 0.96 | 0.733 | 0.308 | 0.173 | 0.206 | 0.412 | 0.364 | 0.403 | 0.399 | 0.335 | 
NCI-H727 | 0.697 | 0.614 | 0.519 | 0.758 | 0.574 |  | 0.388 | 0.372 | 0.374 | 0.373 | 0.336 | 0.382 | 0.346 | 0.679 | 0.603 | 0.337 | 0.702 | 0.808 | 0.449
NCI-H838 | 0.904 | 0.92 | 0.945 | 0.901 | 0.862 | 0.491 | 0.645 | 0.529 | 0.505 | 0.672 | 0.647 | 0.319 | 0.171 | 0.783 | 0.727 | 0.707 | 0.753 | 0.716 | 0.471
NCI-H1355 | 0.75 | 0.639 | 0.633 | 0.735 | 0.687 | 0.451 | 0.437 | 0.477 | 0.464 |  | 0.399 | 0.239 | 0.22 | 0.759 | 0.759 | 0.632 | 0.756 | 0.696 | 0.376
NCI-H1395 | 0.397 | 0.35 | 0.381 | 0.383 | 0.389 | 1.06 | 1.2 | 0.98 | 0.981 |  | 0.812 | 0.549 | 0.375 | 0.448 | 0.362 | 0.463 | 0.469 | 0.462 | 1.23
NCI-H1437 | 1.07 | 1.18 | 1.06 | 1.1 | 1.11 | 0.492 | 0.555 | 0.527 | 0.363 | 0.477 | 0.524 | 0.239 | 0.157 | 0.632 | 0.619 | 0.596 | 0.633 | 0.598 | 0.59
NCI-H1648 | 0.6 |  | 0.533 | 0.702 | 0.769 | 0.43 | 0.459 | 0.568 | 0.378 | 0.441 | 0.383 | 0.299 | 0.323 | 0.841 |  | 0.748 | 0.765 | 0.574 | 0.715
NCI-H1651 | 0.551 | 0.397 | 0.482 | 0.479 | 0.564 | 0.793 | 0.876 | 0.893 | 0.835 | 0.831 | 0.657 | 0.419 | 0.134 | 0.202 | 0.175 | 0.181 | 0.178 | 0.16 | 0.966
NCI-H1666 | 0.839 | 0.771 | 0.814 | 0.873 | 0.996 | 0.831 | 0.804 | 0.845 | 0.68 | 0.769 | 0.569 | 0.638 | 0.432 | 0.755 | 0.683 | 0.659 | 0.82 | 0.774 | 0.803
